From patent US11077090B2, “Compounds and compositions and uses thereof” (Sunovion Pharmaceuticals Inc., priority 2016, dated 2021)
Read-outs that look alike come from different tables or passages of the source.

System: compound-treated mice
Assay: Neuropharmacological assay (SmartCube): behavioral activity signature and minimal effective dose
Type: in vivo
Conditions: for minimal effective dose: Mus musculus, ip, MED = dose having 50% or more total activity; for AD: ADHD (probability of activity signature) / AG: analgesic (probability of activity signature) / AX: anxiolytic (probability of activity signature) / CE: cognitive enhancer (probability of activity signature) / DP: anti-depressant (probability of activity signature) / MS: mood stabilizer (probability of activity signature) / PS: anti-psychotic (probability of activity signature) / SD: sedative hypnotic (probability of activity signature) / UN: uncharacterized CNS activity (probability of activity signature): i.p. 15 min before test, most efficacious dose(s)
From the text: Neurosci. 2011 Sep. 9; 5:103 (doi: 10.3389/fnins.2011.00103) (“Roberds”). As reported in Roberds, because psychiatric diseases generally result from disorders of cell-cell communication or circuitry, intact systems are useful in detecting improvement in disease-relevant endpoints. These endpoints are typically behavioral in nature, often requiring human observation and interpretation. To facilitate testing of multiple compounds for behavioral effects relevant to psychiatric disease, PsychoGenics, Inc. (Tarrytown, N.Y., “PGI”) developed SmartCube™, an automated system in which behaviors of compound-treated mice are captured by digital video and analyzed with computer algorithms. (D. Brunner et al., Drug Discov. Today 2002, 7:S107-S112). PGI Analytical Systems uses data from SmartCube™ to compare the behavioral signature of a test compound to a database of behavioral signatures obtained using a large set of diverse reference compounds. (The composition of the database as well as validation of the method is further described in Roberds). In this way, the neuropharmacological effects of a test compound can be predicted by similarity to major classes of compounds, such as antipsychotics, anxiolytics and antidepressants.
The SmartCube™ system produces an activity signature indicating the probability that the activity of the test compound at the administered dose matches a given class of neuropharmacological agents. (See, e.g., Roberds, FIGS. 2 and 3). The test compound is simultaneously compared against multiple classes of agents; thus, a separate probability is generated for each behavioral effect measured (e.g., anxiolytic activity, analgesic activity, etc.). In the table below, these probabilities are reported for each behavioral effect measured as follows:
where LOQ is the limit of quantification.
Provided compounds were dissolved in a mixture of Pharmasolve™ (N-methyl-2-pyrrolidone), polyethylene glycol and propylene glycol, and were injected i.p. 15 min. before the behavioral test. For each compound, injections were administered at 3 different doses. For each behavioral effect measured, results for the most efficacious dose(s) are presented. In the table below, DP: anti-depressant; AX: anxiolytic; SD: sedative hypnotic; PS: anti-psychotic; MS: mood stabilizer; AD: ADHD; CE: cognitive enhancer; AG: analgesic; UN: uncharacterized CNS activity.
The potency of many of the compounds in the table was also determined in the SmartCube™ system. Test compounds were routinely examined at dose levels of 0.3, 1, 3, 10 and 30 mg per kg (mpk), although the dose range was increased or decreased if necessary to obtain a full dose response curve. A compound's minimal effective dose (MED) is a measure of the compounds potency. The MED was defined as the dose (in mpk) having 50% or more total activity in SmartCube.

[1] = read-out: Potency: minimal effective dose (MED)
[2] = read-out: Potency: minimal effective dose (MED), binned

Row | SMILES | minimal effective dose [1] | AD: ADHD (probability of activity signature) | AG: analgesic (probability of activity signature) | AX: anxiolytic (probability of activity signature) | CE: cognitive enhancer (probability of activity signature) | DP: anti-depressant (probability of activity signature) | MS: mood stabilizer (probability of activity signature) | PS: anti-psychotic (probability of activity signature) | SD: sedative hypnotic (probability of activity signature) | UN: uncharacterized CNS activity (probability of activity signature) | minimal effective dose [2]
1 | Cc1ccc2c(c1)CCOCC2N.Cl (stereo not drawn) [Example 36] | 3 to 10 mg/kg | + (LOQ ≤ + <5%) | ++ (5% ≤ ++ <25%) | ++ (5% ≤ ++ <25%) | +++ (25% ≤ +++ <50%) | ++ (5% ≤ ++ <25%) | + (LOQ ≤ + <5%) | ++ (5% ≤ ++ <25%) | ++ (5% ≤ ++ <25%) | ++ (5% ≤ ++ <25%) | 
2 | N[C@@H]1COCc2c(Cl)cccc21 [Example 131] | < 3 mg/kg | + (LOQ ≤ + <5%) | + (LOQ ≤ + <5%) | ++ (5% ≤ ++ <25%) | +++ (25% ≤ +++ <50%) | ++ (5% ≤ ++ <25%) | ++ (5% ≤ ++ <25%) | ++ (5% ≤ ++ <25%) | ++ (5% ≤ ++ <25%) | +++ (25% ≤ +++ <50%) | 
3 | Cc1ccc(Cl)c2c1[C@H](N)COC2 (single isomer, unassigned) [Example 175] |  | + (LOQ ≤ + <5%) | ++ (5% ≤ ++ <25%) | ++ (5% ≤ ++ <25%) | ++ (5% ≤ ++ <25%) | ++ (5% ≤ ++ <25%) | + (LOQ ≤ + <5%) | ++ (5% ≤ ++ <25%) | + (LOQ ≤ + <5%) | ++++ (50% ≤ ++++) | < 3 mg/kg
4 | COc1cccc2c1[C@H](N)[C@@H](C)OC2.Cl [Example 231] |  | + (LOQ ≤ + <5%) | ++ (5% ≤ ++ <25%) | ++ (5% ≤ ++ <25%) | ++ (5% ≤ ++ <25%) | ++ (5% ≤ ++ <25%) | + (LOQ ≤ + <5%) | + (LOQ ≤ + <5%) | + (LOQ ≤ + <5%) | +++ (25% ≤ +++ <50%) | 10 to 30 mg/kg
5 | Cc1cccc2c1C(N)CCOC2.Cl (stereo not drawn) [Example 39] | 3 to 10 mg/kg | + (LOQ ≤ + <5%) | ++ (5% ≤ ++ <25%) | +++ (25% ≤ +++ <50%) | ++ (5% ≤ ++ <25%) | ++ (5% ≤ ++ <25%) | + (LOQ ≤ + <5%) | + (LOQ ≤ + <5%) | + (LOQ ≤ + <5%) | ++++ (50% ≤ ++++) | 
6 | CN[C@H]1COCc2ccc(C)c(C)c21 [Example 144] | 3 to 10 mg/kg | + (LOQ ≤ + <5%) | ++ (5% ≤ ++ <25%) | ++ (5% ≤ ++ <25%) | ++ (5% ≤ ++ <25%) | ++ (5% ≤ ++ <25%) | + (LOQ ≤ + <5%) | ++ (5% ≤ ++ <25%) | ++ (5% ≤ ++ <25%) | +++ (25% ≤ +++ <50%) | 
7 | COc1ccc2c(c1)[C@H](N)[C@@H](C)OC2.Cl [Example 85] | 3 to 10 mg/kg | + (LOQ ≤ + <5%) | +++ (25% ≤ +++ <50%) | ++ (5% ≤ ++ <25%) | ++ (5% ≤ ++ <25%) | ++ (5% ≤ ++ <25%) | + (LOQ ≤ + <5%) | + (LOQ ≤ + <5%) | + (LOQ ≤ + <5%) | +++ (25% ≤ +++ <50%) | 
8 | COc1ccc2c(c1)[C@H](N)COC2 (single isomer, unassigned) [Example 121] | < 3 mg/kg | + (LOQ ≤ + <5%) | ++ (5% ≤ ++ <25%) | ++ (5% ≤ ++ <25%) | ++ (5% ≤ ++ <25%) | ++ (5% ≤ ++ <25%) | + (LOQ ≤ + <5%) | ++ (5% ≤ ++ <25%) | ++ (5% ≤ ++ <25%) | +++ (25% ≤ +++ <50%) | 
9 | CC(C)c1ccc2c(c1)C(N)COC2.Cl (stereo not drawn) [Example 8, 6-Isopropylisochroman-4-amine hydrochloride] | 10 to 30 mg/kg | + (LOQ ≤ + <5%) | ++ (5% ≤ ++ <25%) | ++ (5% ≤ ++ <25%) | ++ (5% ≤ ++ <25%) | ++ (5% ≤ ++ <25%) | + (LOQ ≤ + <5%) | ++ (5% ≤ ++ <25%) | +++ (25% ≤ +++ <50%) | ++ (5% ≤ ++ <25%) | 
10 | Cl.NC1COCc2ccccc21 (stereo not drawn) [Example 12] | 10 to 30 mg/kg | + (LOQ ≤ + <5%) | ++ (5% ≤ ++ <25%) | ++ (5% ≤ ++ <25%) | ++ (5% ≤ ++ <25%) | ++ (5% ≤ ++ <25%) | + (LOQ ≤ + <5%) | ++ (5% ≤ ++ <25%) | + (LOQ ≤ + <5%) | +++ (25% ≤ +++ <50%) | 
11 | CC[C@@H]1OCc2ccc(C)cc2[C@@H]1N.Cl (relative stereo) [Example 100, cis-3-Ethyl-6-methylisochroman-4-amine hydrochloride] | < 3 mg/kg | + (LOQ ≤ + <5%) | ++ (5% ≤ ++ <25%) | ++ (5% ≤ ++ <25%) | ++ (5% ≤ ++ <25%) | ++ (5% ≤ ++ <25%) | + (LOQ ≤ + <5%) | +++ (25% ≤ +++ <50%) | ++ (5% ≤ ++ <25%) | +++ (25% ≤ +++ <50%) | 
12 | CCc1cccc2c1COCC2N.Cl (stereo not drawn) [Example 17, 8-Ethylisochroman-4-amine hydrochloride] | 10 to 30 mg/kg | + (LOQ ≤ + <5%) | ++ (5% ≤ ++ <25%) | +++ (25% ≤ +++ <50%) | ++ (5% ≤ ++ <25%) | ++ (5% ≤ ++ <25%) | + (LOQ ≤ + <5%) | ++ (5% ≤ ++ <25%) | + (LOQ ≤ + <5%) | +++ (25% ≤ +++ <50%) | 
